For data set [1], the target named is T1, Mu-type opioid receptor (Homo sapiens, UniProt P35372). Nature of the data set: Inhibitory constant against human Opioid receptor mu 1 using [3H]diprenorphine as radio ligand.
The next data set addresses CYP2D6 (Homo sapiens, UniProt P10635). Briefly: Inhibition of cytochrome P450 2D6 activity was measured by the inhibition of HAMC production at the concentration of 10 uM. It is filed as ADME.
In data set [2] the target is T2, Delta-type opioid receptor (Homo sapiens, UniProt P41143). Briefly: Inhibitory constant against human Opioid receptor delta 1 using [3H]diprenorphine as radio ligand.
For another data set, the target named is Cytochrome P450 2D6 (Homo sapiens, UniProt P10635). Briefly: Inhibition of cytochrome P450 2D6 was determined using MAMC (7-methoxy-4-aminomethyl-coumarin) as substrate. It is filed as ADME.
The target of data set [3] is T1, Mu-type opioid receptor. Nature of the data set: Percent inhibition against human Opioid receptor mu 1 using [3H]diprenorphine as radio ligand. Set-up: concentration or dose not given beside the values. To be noted: concentration not given here.
The target in data set [4] is T2, Delta-type opioid receptor. Nature of the data set: Percent inhibition against human Opioid receptor delta 1 using [3H]diprenorphine as radio ligand. To be noted: concentration not given here.
The target in data set [5] is T2, Delta-type opioid receptor. Briefly: Percent inhibition constant against human Opioid receptor delta 1 using [3H]diprenorphine as radio ligand. The conditions noted are these: concentration not given here.

Data on 26 compounds can be found in ChEMBL document CHEMBL1145259, “Arylacetamide kappa opioid receptor agonists with reduced cytochrome P450 2D6 inhibitory activity” (Bioorg Med Chem Lett, 2005).

By Ki is commonly meant a measure of affinity in units of concentration, obtained from inhibition or displacement. Broadly, the inhibition is the drop in the measured response relative to a control, in per cent. By IC50 is commonly meant the concentration that gives 50% inhibition.

CYP2D6, sequence (P10635 whole entry): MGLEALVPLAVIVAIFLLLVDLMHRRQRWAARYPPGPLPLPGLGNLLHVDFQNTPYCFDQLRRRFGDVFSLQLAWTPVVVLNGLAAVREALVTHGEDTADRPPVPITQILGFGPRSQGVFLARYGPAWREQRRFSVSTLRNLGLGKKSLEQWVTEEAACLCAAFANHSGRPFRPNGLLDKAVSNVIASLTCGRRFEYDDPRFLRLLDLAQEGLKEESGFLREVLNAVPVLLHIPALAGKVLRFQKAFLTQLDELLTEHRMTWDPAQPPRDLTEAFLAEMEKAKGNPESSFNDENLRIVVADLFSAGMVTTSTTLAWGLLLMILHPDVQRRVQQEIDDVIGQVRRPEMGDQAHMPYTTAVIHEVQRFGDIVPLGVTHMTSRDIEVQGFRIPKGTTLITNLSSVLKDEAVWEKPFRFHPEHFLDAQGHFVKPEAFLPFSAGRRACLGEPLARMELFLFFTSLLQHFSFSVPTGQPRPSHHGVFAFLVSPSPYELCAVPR
Cytochrome P450 2D6, sequence (P10635 whole entry): as above
T2 sequence (P41143 whole entry): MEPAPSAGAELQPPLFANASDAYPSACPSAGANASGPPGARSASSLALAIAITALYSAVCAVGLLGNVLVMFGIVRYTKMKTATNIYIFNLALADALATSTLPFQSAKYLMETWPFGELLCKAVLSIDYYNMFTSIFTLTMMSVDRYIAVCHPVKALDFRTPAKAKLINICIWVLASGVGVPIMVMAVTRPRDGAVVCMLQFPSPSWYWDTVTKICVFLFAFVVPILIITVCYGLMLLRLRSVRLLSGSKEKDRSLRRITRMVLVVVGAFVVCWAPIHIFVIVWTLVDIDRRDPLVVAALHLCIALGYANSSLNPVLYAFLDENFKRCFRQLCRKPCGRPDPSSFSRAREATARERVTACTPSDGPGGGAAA
T1 sequence (P35372 whole entry): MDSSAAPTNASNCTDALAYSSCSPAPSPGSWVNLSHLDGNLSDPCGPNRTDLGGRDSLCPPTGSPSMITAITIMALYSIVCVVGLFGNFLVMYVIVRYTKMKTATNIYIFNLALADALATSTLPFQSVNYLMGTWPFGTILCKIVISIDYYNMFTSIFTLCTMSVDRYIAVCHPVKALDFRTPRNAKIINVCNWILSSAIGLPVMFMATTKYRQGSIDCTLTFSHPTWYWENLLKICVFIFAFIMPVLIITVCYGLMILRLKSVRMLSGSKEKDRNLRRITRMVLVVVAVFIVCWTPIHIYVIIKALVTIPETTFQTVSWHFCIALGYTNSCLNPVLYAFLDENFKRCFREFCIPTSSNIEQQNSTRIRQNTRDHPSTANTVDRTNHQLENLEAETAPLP

Regarding `CCS(=O)(=O)NCc1ccc(CC(=O)N(C)[C@H](CN2CC[C@H](O)C2)c2ccccc2)cc1`, the Ki on Mu-type opioid receptor [1] came out at 1030 nM. This compound also yielded an inhibition at 10 µM against CYP2D6 of 31%.

Consider `CN(C(=O)Cc1ccc(CNS(C)(=O)=O)cc1)[C@H](CN1CCCC1)c1ccccc1`, for which the figures for the Ki (in data set [2]; at Mu-type opioid receptor [1]) were 1130 nM and 440 nM, respectively. Moreover, the inhibition at 10 µM on CYP2D6 turned out to be 45%.

In the case of `CN(C(=O)Cc1ccc(NS(C)(=O)=O)cc1)[C@H](CN1CC[C@H](O)C1)c1ccccc1`, the Ki in data set [2] is 177 nM; on Mu-type opioid receptor [1] it was 105 nM. In addition, half-maximal inhibition against Cytochrome P450 2D6 (IC50) required 5530 nM.

With `CN(C(=O)Cc1ccc(CNS(=O)(=O)Cc2cccs2)cc1)[C@H](CN1CC[C@H](O)C1)c1ccccc1`, the results for the inhibition constant Ki (in data set [2]; at Mu-type opioid receptor [1]) were 55 nM and 1060 nM, respectively. On Cytochrome P450 2D6, this compound displayed a 50% inhibitory concentration (IC50) of 4780 nM.

As to `CC(=O)NCc1cccc(CC(=O)N(C)[C@H](CN2CCCC2)c2ccccc2)c1`, the inhibition came out at 21% at Mu-type opioid receptor [3] and 15% in data set [4]. At Cytochrome P450 2D6, this compound had an IC50 of 600 nM.

For the compound `CC(=O)NCc1ccc(CC(=O)N(C)[C@H](CN2CCCC2)c2ccccc2)cc1`, the inhibition worked out at 26% on Mu-type opioid receptor [3] and 0% in data set [4]. Moreover, at Cytochrome P450 2D6, 1110 nM corresponded to half-maximal inhibition (IC50).

With `CN(C(=O)Cc1cccc(CNS(C)(=O)=O)c1)[C@H](CN1CCCC1)c1ccccc1`, the 50% inhibitory concentration (IC50) against Cytochrome P450 2D6 was 1820 nM.

`Cc1ccc(S(=O)(=O)NCc2ccc(CC(=O)N(C)[C@H](CN3CC[C@H](O)C3)c3ccccc3)cc2)cc1` displayed an inhibition constant (Ki) in data set [2] of 27 nM. The compound further displayed an IC50 on Cytochrome P450 2D6 of 5650 nM.

As for `CN(C(=O)Cc1ccccc1CN)[C@H](CN1CCCC1)c1ccccc1`, the results for the inhibition (in data set [5]; against Mu-type opioid receptor [3]) were 37% and 29%, respectively. On Cytochrome P450 2D6, this compound registered an IC50 of 18 nM.

Take `CN(C(=O)Cc1ccc(CNS(=O)(=O)c2ccc(F)cc2)cc1)[C@H](CN1CC[C@H](O)C1)c1ccccc1`: the Ki in data set [2] is 63 nM; at Mu-type opioid receptor [1], 1080 nM. On Cytochrome P450 2D6, this compound came in with a concentration for half-maximal inhibition (IC50) of 5790 nM.

Regarding `CN(C(=O)Cc1ccc(CNS(=O)(=O)c2ccccc2)cc1)[C@H](CN1CC[C@H](O)C1)c1ccccc1`, the IC50 against Cytochrome P450 2D6 was 4340 nM.

In the case of `CN(C(=O)Cc1ccc(CCCNS(C)(=O)=O)cc1)[C@H](CN1CC[C@H](O)C1)c1ccccc1`, 10 µM produced 46% inhibition against CYP2D6.

As to `CN(C(=O)Cc1ccc2c(c1)CN(S(C)(=O)=O)C2)[C@H](CN1CCCC1)c1ccccc1`, the inhibition constant Ki is 1500 nM in data set [2] and 74 nM on Mu-type opioid receptor [1]. On Cytochrome P450 2D6, the midpoint of inhibition, the IC50, lay at 1040 nM.

Regarding `CCCS(=O)(=O)NCc1ccc(CC(=O)N(C)[C@H](CN2CC[C@H](O)C2)c2ccccc2)cc1`, the inhibitory constant (Ki) turned out to be 124 nM in data set [2] and 1050 nM on Mu-type opioid receptor [1]. On CYP2D6, this compound gave an inhibition at 10 µM of 27%.

Regarding `CCCCS(=O)(=O)NCc1ccc(CC(=O)N(C)[C@H](CN2CC[C@H](O)C2)c2ccccc2)cc1`, the Ki in data set [2] is 167 nM; on Mu-type opioid receptor [1] it was 1050 nM. At Cytochrome P450 2D6, the midpoint of inhibition, the IC50, lay at 7890 nM.

Regarding `CN(C(=O)Cc1ccccc1CNS(C)(=O)=O)[C@H](CN1CCCC1)c1ccccc1`, the inhibition constant (Ki) was determined as 898 nM in data set [2] and 570 nM at Mu-type opioid receptor [1]. Also, the IC50 on Cytochrome P450 2D6 is 295 nM.

For the compound `CN(C(=O)Cc1cccc(CN)c1)[C@H](CN1CCCC1)c1ccccc1`, the inhibitory constant (Ki) on Mu-type opioid receptor [1] was 2300 nM. For the same compound, 107 nM corresponded to half-maximal inhibition against Cytochrome P450 2D6 (IC50). For the same compound, in data set [4], the inhibition worked out at 1.4%.

On Cytochrome P450 2D6, `CN(C(=O)Cc1ccccc1)[C@H](CN1CCCC1)c1ccccc1` registered an IC50 of 46 nM.

Regarding `CN(C(=O)Cc1ccc(CNS(=O)(=O)Cc2ccccc2)cc1)[C@H](CN1CC[C@H](O)C1)c1ccccc1`, in data set [2], the Ki came out at 173 nM. Also, at Cytochrome P450 2D6, the IC50 worked out at 5700 nM.

In turn, `CN(C(=O)Cc1ccc(Cl)c(Cl)c1)[C@H](CN1CCCC1)c1ccccc1` [ICI-199,441] registered an IC50 at Cytochrome P450 2D6 of 26 nM.

Turning to `CNC(=O)NCc1ccc(CC(=O)N(C)[C@H](CN2CCCC2)c2ccccc2)cc1`, the affinity in data set [2], expressed as Ki, was 1300 nM. Moreover, the inhibition on Mu-type opioid receptor [3] is 43%. This compound also came in with a 50% inhibitory concentration (IC50) against Cytochrome P450 2D6 of 1220 nM.

For `CN(C(=O)Cc1ccc(CN)cc1)[C@H](CN1CCCC1)c1ccccc1`, the inhibition is 41% against Mu-type opioid receptor [3] and 17% in data set [4]. Moreover, at Cytochrome P450 2D6, half-maximal inhibition (IC50) was put at 326 nM.

Regarding `CC(=O)NCc1ccccc1CC(=O)N(C)[C@H](CN1CCCC1)c1ccccc1`, the Ki was found to be 900 nM in data set [2] and 1240 nM on Mu-type opioid receptor [1]. Moreover, the half-maximal inhibitory concentration (IC50) at Cytochrome P450 2D6 was found to be 35 nM.

In the case of `CN(C(=O)Cc1ccc(CNS(C)(=O)=O)cc1)[C@H](CN1CC[C@H](O)C1)c1ccccc1`, the Ki came out at 167 nM in data set [2] and 151 nM at Mu-type opioid receptor [1]. Further, at CYP2D6, at 10 µM the inhibition was 25%.

Regarding `CC(C)S(=O)(=O)NCc1ccc(CC(=O)N(C)[C@H](CN2CC[C@H](O)C2)c2ccccc2)cc1`, the inhibition at 10 µM on CYP2D6 stood at 27%.

`CN(C(=O)Cc1ccc(CCNS(C)(=O)=O)cc1)[C@H](CN1CC[C@H](O)C1)c1ccccc1` returned an inhibition constant Ki in data set [2] of 107 nM. The inhibition at 10 µM at CYP2D6 came out at 48%.
